Source: US6787327B2, “Methods for determining tyrosine-DNA phosphodiesterase activity” (Kelk Graduate of Applied Life Sciences, priority 2001, dated 2004)

Target: HTDPNΔ1-39 (recombinant human TDP) (Homo sapiens, UniProt Q9NUW8)
Settings: manganese chloride 5 mM or 10 mM; 5 mM substrate, 5 μg protein; absorbance at 415 nm; FIG. 7
From the text: In these assays, a chromogenic enzymatic assay system is used. In these systems, a substrate of smaller molecular weight (i.e., as compared with other substrates) containing one single base of thymidine, with chromogenic para-nitrophenyl group attached to the 3′-hydroxy group of deoxyribose was chosen. This compound mimics the aromatic groups of tyrosine in topo I-DNA complexes.
Upon the cleavage of the phosphodiester bond by TDP, the p-nitrophenol group mimicking the tyrosine residue in topo I-DNA complexes is released. The concentration of this group (i.e., a chromogen) is determined using spectroscopy. Thus, in this Example, enzymatic reactions contained 100 mM Tris HCl, pH 8.5, 100 mM NaCl, 1 mM DTT, 5 mM para-nitrophenyl thymidine-3′-phosphate and 5 μg of purified protein in a volume of 200 μl. For these reactions, 96-well plates were used. The amount of cleaved product (p-nitrophenol) was assessed by determining its absorbance at 415 nm (Ultramark Microplate Imaging System, BioRad).
During the development of this assay system, it was determined that the system may be optimized by the inclusion of manganese cation in the assay. […] Upon incubation of various TDP mutants and the substrate (para-nitrophenyl-thymidine-3′-phosphate) in the presence of manganese cations, the concentrations of the resulting para-nitrophenynol were calculated based on the optical density measured at 415 nm. […]

Chain of HTDPNΔ1-39 (recombinant human TDP) (Q9NUW8 40-608, stated change not applied): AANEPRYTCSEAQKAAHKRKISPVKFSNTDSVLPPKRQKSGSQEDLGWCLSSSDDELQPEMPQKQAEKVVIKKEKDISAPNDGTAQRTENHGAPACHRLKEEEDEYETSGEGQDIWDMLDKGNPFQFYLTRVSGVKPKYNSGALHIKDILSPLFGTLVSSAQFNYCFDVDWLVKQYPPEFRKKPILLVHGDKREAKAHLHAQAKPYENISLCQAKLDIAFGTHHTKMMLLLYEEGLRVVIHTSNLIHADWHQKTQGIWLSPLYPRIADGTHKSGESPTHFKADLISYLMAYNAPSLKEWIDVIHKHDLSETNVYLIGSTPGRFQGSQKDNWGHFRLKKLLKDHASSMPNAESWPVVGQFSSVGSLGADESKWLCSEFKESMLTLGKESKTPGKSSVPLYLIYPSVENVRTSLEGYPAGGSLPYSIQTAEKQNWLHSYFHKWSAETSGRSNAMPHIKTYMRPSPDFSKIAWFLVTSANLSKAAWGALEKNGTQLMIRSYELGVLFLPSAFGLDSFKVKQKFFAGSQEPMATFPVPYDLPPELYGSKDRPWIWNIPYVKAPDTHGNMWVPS

manganese chloride
increase of enzymatic activity on para-nitrophenyl thymidine-3′-phosphate, as compared to the activity in the presence of magnesium: 7 fold
increase of enzymatic activity on para-nitrophenyl thymidine-3′-phosphate, as compared with the activity in the absence of cations: 17 fold
